Legend:
[1] = test system: human primary hepatocytes; assay: Intracellular triphosphate concentration and half life; type: in vitro ADME; settings: 2 μM
Description: The putative active species of the compounds of the invention is β-D-2′-deoxy-2′-β-C-methyl-4′-azidocytidine triphosphate. The stability of the triphosphate is determined in fresh human primary hepatocytes (CellzDirect or In Vitro Technologies) pre-incubated with tritiated parent compound. The hepatocytes are cultured on 6 well collagen coated plates (BD Biosciences), typically at 1.5 million cells/well using complete serum-containing medium (CellzDirect or In Vitro Technologies)/37° C./5% CO2. Various hepatocyte strains are available, such as Hu497, MHL-091806 and Hu504 and it is therefore useful to test such strains in parallel and calculate mean values from a range of strains.
The pre-incubation is typically for 24 hours with 2 μM of the tritiated parent at 10 μC/ml. […] The concentration of intracellular triphosphate is quantified at different time points up to 72 hours. […]
At the appropriate timepoint, cells are harvested by aspirating the cell culture medium and washing the cells with cold PBS. […] The parent and intracellular metabolites are identified by comparison of the retention times of the intracellular species in the radiochromatogram with the retention of non-radioactive reference standards spiked in the cell extract samples and detected by UV absorption, typically at 270 nm […]

[2] = test system: Renilla luciferase HCV replicon cells (2209-23)
[3] = target: T1, HCV Pol (Hepatitis C virus genotype 1b, UniProt Q9WMX2); assay: Renilla luciferase HCV replicon assay; type: cell-based
T1 construct: expressed in transfected cells
T1 sequence (Q9WMX2 2420-3010): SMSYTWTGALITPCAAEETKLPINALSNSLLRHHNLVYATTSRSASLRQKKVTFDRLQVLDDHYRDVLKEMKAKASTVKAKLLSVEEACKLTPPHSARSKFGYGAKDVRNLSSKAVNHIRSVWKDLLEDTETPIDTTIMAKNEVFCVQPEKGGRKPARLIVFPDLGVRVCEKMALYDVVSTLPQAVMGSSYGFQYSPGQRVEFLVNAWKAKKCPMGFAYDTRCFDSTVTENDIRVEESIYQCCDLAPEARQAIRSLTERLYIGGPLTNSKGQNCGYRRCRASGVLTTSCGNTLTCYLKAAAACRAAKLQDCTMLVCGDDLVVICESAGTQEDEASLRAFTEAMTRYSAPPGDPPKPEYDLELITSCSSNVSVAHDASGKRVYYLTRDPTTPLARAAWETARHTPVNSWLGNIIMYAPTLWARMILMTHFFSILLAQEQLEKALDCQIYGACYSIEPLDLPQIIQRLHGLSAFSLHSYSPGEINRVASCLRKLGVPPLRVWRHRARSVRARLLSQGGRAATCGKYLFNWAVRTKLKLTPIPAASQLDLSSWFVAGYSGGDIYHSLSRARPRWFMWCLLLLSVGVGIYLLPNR

[4] = in vitro; settings: human

| steady state triphosphate level at 24 hours [1] [pM/million cells] | SMILES | cytotoxicity in the replicon assay (in words) [2] | activity in cell based replicon assay for HCV polymerase activity (in words) [3] | inhibition at 100 µM ([3]; 100 μM, cell based replicon assay, read-out: Maximum % Inhibition HCV Pol (100 μM)) [%] | cytotoxicity at 100 µM [4] [%] |
| --- | --- | --- | --- | --- | --- |
| 1.3 | C[C@@]1(F)[C@H](O)[C@@H](CO)O[C@H]1n1ccc(N)nc1=O [PSI-6130, β-D-2′-deoxy-2′-fluoro-2′-β-C-methylcytidine] |  |  |  |  |
|  | CC1C(n2ccc(N)nc2=O)OC(CO)(N=[N+]=[N-])C1O (centres unmarked) [Compound 22, 4-Amino-1-(5-azido-4-hydroxy-5-hydroxymethyl-3-methyl-tetrahydro-furan-2-yl)-1H-pyrimidin-2-one] | low levels of cytoxicity | good activity | 98.6 | 9.48 |

— patent publication US8158779B2, “Antiviral nucleosides” (Medivir AB, priority 2006, dated 2012)
